Patent US20260262643A1, “HERBICIDAL BENZOXAZINES” (FMC CORPORATION, priority 2022, published 2026)

Columns and labels:
[1] = test system: ragweed; experiment: Test A postemergence; format: in vivo, Ambrosia artemisiifolia; details: 500 g ai/ha, postemergence, 10 days, visual injury, 0 to 100 scale (0 no effect, 100 complete control)
In short: (§1)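 Seeds in loam–sand blend received a directed preemergence soil spray of compound in non-phytotoxic solvent with surfactant; postemergence plants (2–10 cm, one- to two-leaf stage) were sprayed with the same formulation. After 10 days in greenhouse, injury was rated visually versus untreated controls, 0 (no effect) to 100 (complete control).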

[2] = test system: galium; experiment: Test A postemergence; format: in vivo, Galium aparine; details: postemergence, 10 days, visual injury, 0 to 100 scale (0 no effect, 100 complete control)
In short: as §1

[3] = test system: horseweed; experiment: Test A postemergence; format: in vivo, Erigeron canadensis; details: postemergence, 10 days, visual injury, 0 to 100 scale (0 no effect, 100 complete control)
In short: as §1

[4] = test system: blackgrass; experiment: Test A postemergence; format: in vivo, Alopecurus myosuroides
In short: as §1

[5] = test system: corn; experiment: Test A postemergence; format: in vivo, Zea mays; details: postemergence, 10 days, visual injury, 0 to 100 scale (0 no effect, 100 complete control)
In short: as §1

[6] = test system: pigweed, palmer; experiment: Test A postemergence; format: in vivo, Amaranthus palmeri; details: 500 g ai/ha, postemergence, 10 days, visual injury, 0 to 100 scale (0 no effect, 100 complete control)
In short: as §1

[7] = test system: barnyardgrass; experiment: Test B flooded paddy test; format: in vivo, Echinochloa crus-galli; details: 250 g ai/ha, Flood, 13 days, 0 to 100 scale (0 no effect, 100 complete control)
In short: (§2)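 Plants at the 2-leaf stage were flooded to 3 cm above the soil, and test compounds were applied directly into the paddy water, with that depth held throughout. After 13 days in a greenhouse, injury was rated visually against untreated controls on a 0–100 scale (100 = complete control).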

[8] = test system: foxtail, giant; experiment: Test A postemergence; format: in vivo, Setaria faberi; details: postemergence, 10 days, visual injury, 0 to 100 scale (0 no effect, 100 complete control)
In short: as §1

[9] = test system: corn; experiment: Test A preemergence; format: in vivo, Zea mays
In short: as §1

[10] = test system: oat, wild; experiment: Test A postemergence; format: in vivo, Avena fatua; details: 500 g ai/ha, postemergence, 10 days, visual injury, 0 to 100 scale (0 no effect, 100 complete control)
In short: as §1

[11] = test system: goosegrass; experiment: Test A preemergence; format: in vivo, Eleusine indica
In short: as §1

[12] = test system: sedge, umbrella; experiment: Test B flooded paddy test; format: in vivo, Cyperus difformis; details: 250 g ai/ha, Flood, 13 days, 0 to 100 scale (0 no effect, 100 complete control)
In short: as §2

[13] = test system: kochia; experiment: Test A postemergence; format: in vivo, Bassia scoparia; details: postemergence, 10 days, visual injury, 0 to 100 scale (0 no effect, 100 complete control)
In short: as §1

[14] = test system: rice; experiment: Test B flooded paddy test; format: in vivo, Oryza sativa; details: 250 g ai/ha, Flood, 13 days, 0 to 100 scale (0 no effect, 100 complete control)
In short: as §2

[15] = test system: kochia; experiment: Test A preemergence; format: in vivo, Bassia scoparia
In short: as §1

[16] = test system: foxtail, giant; experiment: Test A preemergence; format: in vivo, Setaria faberi
In short: as §1

[17] = test system: soybean; experiment: Test A preemergence; format: in vivo, Glycine max
In short: as §1

[18] = test system: ragweed; experiment: Test A preemergence; format: in vivo, Ambrosia artemisiifolia
In short: as §1

[19] = test system: ryegrass, Italian; experiment: Test A preemergence; format: in vivo, Lolium multiflorum
In short: as §1

[20] = test system: soybean; experiment: Test A postemergence; format: in vivo, Glycine max; details: 500 g ai/ha, postemergence, 10 days, visual injury, 0 to 100 scale (0 no effect, 100 complete control)
In short: as §1

[21] = test system: pigweed, palmer; experiment: Test A preemergence; format: in vivo, Amaranthus palmeri
In short: as §1

[22] = test system: wheat; experiment: Test A preemergence; format: in vivo, Triticum aestivum
In short: as §1

[23] = test system: ryegrass, Italian; experiment: Test A postemergence; format: in vivo, Lolium multiflorum; details: 500 g ai/ha, postemergence, 10 days, visual injury, 0 to 100 scale (0 no effect, 100 complete control)
In short: as §1

[24] = test system: goosegrass; experiment: Test A postemergence; format: in vivo, Eleusine indica; details: postemergence, 10 days, visual injury, 0 to 100 scale (0 no effect, 100 complete control)
In short: as §1

[25] = test system: oat, wild; experiment: Test A preemergence; format: in vivo, Avena fatua
In short: as §1

[26] = test system: ducksalad; experiment: Test B flooded paddy test; format: in vivo, Heteranthera limosa; details: 250 g ai/ha, Flood, 13 days, 0 to 100 scale (0 no effect, 100 complete control)
In short: as §2

[27] = test system: wheat; experiment: Test A postemergence; format: in vivo, Triticum aestivum; details: 500 g ai/ha, postemergence, 10 days, visual injury, 0 to 100 scale (0 no effect, 100 complete control)
In short: as §1

[28] = 125 g ai/ha, visual injury after 10 days, 0 to 100 scale, 0 is no effect, 100 is complete control
[29] = 500 g ai/ha, 0 to 100 scale (0 no effect, 100 complete control), 10 days

CC(C)c1ncn(-c2cccc(C(=O)N3C[C@H](C)Oc4c(Cl)cccc43)c2)n1 [Compound 78]
Plant response rating, Ragweed [1]: 80
Plant response rating, Galium ([2]; 125 g ai/ha): 100
Plant response rating, Galium ([2]; 500 g ai/ha): 100
Plant response rating, Horseweed ([3]; 125 g ai/ha): 0
Plant response rating, Horseweed ([3]; 500 g ai/ha): 0
Plant response rating, Blackgrass ([4]; 125 g ai/ha, postemergence, 10 days, visual injury, 0 to 100 scale (0 no effect, 100 complete control)): 50
Plant response rating, Blackgrass ([4]; 500 g ai/ha, Postemergence, 0 to 100 scale): 90
Plant response rating, Corn ([5]; 125 g ai/ha): 10
Plant response rating, Corn ([5]; 500 g ai/ha): 60
Plant response rating, Pigweed, Palmer [6]: 90
Plant response rating, Barnyardgrass [7]: 0
Plant response rating, Foxtail, Giant ([8]; 125 g ai/ha): 50
Plant response rating, Foxtail, Giant ([8]; 500 g ai/ha): 90
Plant response rating, Corn [9, 28]: 30
Plant response rating, Corn [9, 29]: 30
Plant response rating, Oat, Wild [10]: 90
Plant response rating, Goosegrass [11, 28]: 90
Plant response rating, Goosegrass [11, 29]: 100
Plant response rating, Sedge, Umbrella [12]: 0
Plant response rating, Kochia ([13]; 125 g ai/ha): 70
Plant response rating, Kochia ([13]; 500 g ai/ha): 100
Plant response rating, Rice [14]: 0
Plant response rating, Kochia [15, 28]: 90
Plant response rating, Kochia [15, 29]: 100
Plant response rating, Foxtail, Giant [16, 28]: 100
Plant response rating, Foxtail, Giant [16, 29]: 100
Plant response rating, Soybean [17, 28]: 0
Plant response rating, Soybean [17, 29]: 100
Plant response rating, Ragweed [18, 28]: 0
Plant response rating, Ragweed [18, 29]: 90
Plant response rating, Ryegrass, Italian [19, 28]: 90
Plant response rating, Ryegrass, Italian [19, 29]: 100
Plant response rating, Soybean [20]: 100
Plant response rating, Pigweed, Palmer [21, 28]: 100
Plant response rating, Pigweed, Palmer [21, 29]: 100
Plant response rating, Wheat [22, 28]: 20
Plant response rating, Wheat [22, 29]: 80
Plant response rating, Ryegrass, Italian [23]: 100
Plant response rating, Goosegrass ([24]; 125 g ai/ha): 40
Plant response rating, Goosegrass ([24]; 500 g ai/ha): 80
Plant response rating, Oat, Wild [25, 28]: 80
Plant response rating, Oat, Wild [25, 29]: 90
Plant response rating, Ducksalad [26]: 75
Plant response rating, Wheat [27]: 50
